Assay results taken from ChEMBL document CHEMBL1909046, “DrugMatrix in vitro pharmacology data”.

Legend:
D(1A) dopamine receptor = D(1A) dopamine receptor (Homo sapiens, UniProt P21728); assay: DRUGMATRIX: Dopamine D1 radioligand binding (ligand: [3H] SCH-23390); type: cell membranes, CHO, Membrane; conditions: cho; Not Active = under 50% inhibition at 10 µM
[1] = DRUGMATRIX: Purinergic P2X radioligand binding (ligand: [3H] alpha, beta-Methylene-ATP); type: cell membranes, Oryctolagus cuniculus, New Zealand albino, Urinary bladder, Membrane; conditions: Not Active = under 50% inhibition at 10 µM
Acetylcholinesterase = Acetylcholinesterase (Homo sapiens, UniProt P22303); assay: DRUGMATRIX: Acetylcholinesterase enzyme inhibition (substrate: acetylthiocholine); type: cell-based, HEK293; conditions: hek293; Not Active = under 50% inhibition at 10 µM
Chain of Acetylcholinesterase (P22303 whole entry): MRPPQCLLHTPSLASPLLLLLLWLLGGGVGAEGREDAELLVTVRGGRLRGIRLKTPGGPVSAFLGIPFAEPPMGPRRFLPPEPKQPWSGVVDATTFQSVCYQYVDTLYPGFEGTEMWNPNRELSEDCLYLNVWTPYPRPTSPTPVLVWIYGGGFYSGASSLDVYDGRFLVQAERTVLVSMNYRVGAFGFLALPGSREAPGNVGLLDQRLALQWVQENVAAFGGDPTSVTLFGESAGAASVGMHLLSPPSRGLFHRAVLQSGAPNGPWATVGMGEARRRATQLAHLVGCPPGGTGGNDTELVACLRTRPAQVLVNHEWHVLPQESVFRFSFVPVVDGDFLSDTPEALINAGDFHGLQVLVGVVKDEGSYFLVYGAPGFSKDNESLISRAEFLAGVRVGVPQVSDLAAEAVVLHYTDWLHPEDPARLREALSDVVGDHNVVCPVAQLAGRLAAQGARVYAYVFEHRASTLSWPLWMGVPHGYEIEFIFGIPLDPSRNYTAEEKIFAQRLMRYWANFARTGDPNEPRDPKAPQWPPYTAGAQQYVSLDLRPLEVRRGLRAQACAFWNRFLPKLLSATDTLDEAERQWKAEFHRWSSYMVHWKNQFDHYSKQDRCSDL

[2] = DRUGMATRIX: Interleukin IL-1 radioligand binding (ligand: [125I] interleukin 1beta); type: cell membranes, Membrane; conditions: nih3t3; Not Active = under 50% inhibition at 10 µM
[3] = molecular target: Delta-type opioid receptor (Homo sapiens, UniProt P41143); type: cell membranes, Membrane; conditions: hek293; further: in other assays of this panel Not Active means under 50% inhibition at 10 µM
Chain of Delta-type opioid receptor (P41143 whole entry): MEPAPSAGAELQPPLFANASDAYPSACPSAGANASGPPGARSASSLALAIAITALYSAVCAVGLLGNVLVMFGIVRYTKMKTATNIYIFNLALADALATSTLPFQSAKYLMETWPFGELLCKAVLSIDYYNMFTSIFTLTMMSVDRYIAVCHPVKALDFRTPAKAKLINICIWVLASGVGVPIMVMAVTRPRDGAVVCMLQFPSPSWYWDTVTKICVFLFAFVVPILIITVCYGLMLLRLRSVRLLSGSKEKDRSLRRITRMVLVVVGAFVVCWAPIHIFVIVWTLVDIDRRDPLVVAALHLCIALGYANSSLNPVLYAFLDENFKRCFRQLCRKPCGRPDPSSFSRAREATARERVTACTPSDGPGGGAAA

D(4) dopamine receptor = molecular target: T1, D(4) dopamine receptor (Homo sapiens, UniProt P21917); assay: DRUGMATRIX: Dopamine D4.2 radioligand binding (ligand: [3H] Spiperone); type: cell membranes, CHO-K1, Membrane; conditions: cho-k1; Not Active = under 50% inhibition at 10 µM
T1 sequence (P21917 whole entry): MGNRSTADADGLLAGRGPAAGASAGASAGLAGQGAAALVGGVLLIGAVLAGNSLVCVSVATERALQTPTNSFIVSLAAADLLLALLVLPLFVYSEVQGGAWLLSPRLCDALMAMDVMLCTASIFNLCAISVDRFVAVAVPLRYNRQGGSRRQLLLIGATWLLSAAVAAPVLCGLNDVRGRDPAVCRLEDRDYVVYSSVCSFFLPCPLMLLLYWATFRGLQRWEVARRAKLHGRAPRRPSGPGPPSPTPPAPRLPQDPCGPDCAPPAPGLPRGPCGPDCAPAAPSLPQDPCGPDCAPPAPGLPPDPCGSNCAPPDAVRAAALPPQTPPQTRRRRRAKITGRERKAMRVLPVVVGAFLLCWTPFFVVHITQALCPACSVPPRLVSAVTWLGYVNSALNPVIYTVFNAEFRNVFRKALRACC

[4] = molecular target: Prostaglandin G/H synthase 1 (Homo sapiens, UniProt P23219); assay: biochemical; type: tissue-based, Platelet;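 further: inhibition of COX-1 enzyme activity, with arachidonic acid supplied as substrate; in other assays of this panel Not Active means under 50% inhibition at 10 µM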
Chain of Prostaglandin G/H synthase 1 (P23219 whole entry): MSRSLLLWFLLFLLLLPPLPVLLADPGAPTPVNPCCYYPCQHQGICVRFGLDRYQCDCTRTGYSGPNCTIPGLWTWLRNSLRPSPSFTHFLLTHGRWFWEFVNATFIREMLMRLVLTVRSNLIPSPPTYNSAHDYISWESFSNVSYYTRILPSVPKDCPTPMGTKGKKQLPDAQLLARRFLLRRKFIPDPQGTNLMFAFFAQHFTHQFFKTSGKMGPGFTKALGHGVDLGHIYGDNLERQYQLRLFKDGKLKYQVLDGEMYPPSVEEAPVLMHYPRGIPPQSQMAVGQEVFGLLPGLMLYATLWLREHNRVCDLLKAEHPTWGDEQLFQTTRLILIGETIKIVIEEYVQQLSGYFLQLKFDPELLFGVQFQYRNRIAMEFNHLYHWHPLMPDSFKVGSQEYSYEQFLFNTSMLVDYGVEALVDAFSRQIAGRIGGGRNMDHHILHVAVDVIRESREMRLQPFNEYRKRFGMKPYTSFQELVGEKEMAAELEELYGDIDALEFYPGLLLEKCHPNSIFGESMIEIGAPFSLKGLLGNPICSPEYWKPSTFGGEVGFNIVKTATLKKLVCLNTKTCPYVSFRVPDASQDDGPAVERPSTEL

Insulin receptor = Insulin receptor (Rattus norvegicus, UniProt P15127); type: cell membranes, Wistar, Liver, Membrane; further: in other assays of this panel Not Active means under 50% inhibition at 10 µM
Chain of Insulin receptor (P15127 27-759 limits assumed): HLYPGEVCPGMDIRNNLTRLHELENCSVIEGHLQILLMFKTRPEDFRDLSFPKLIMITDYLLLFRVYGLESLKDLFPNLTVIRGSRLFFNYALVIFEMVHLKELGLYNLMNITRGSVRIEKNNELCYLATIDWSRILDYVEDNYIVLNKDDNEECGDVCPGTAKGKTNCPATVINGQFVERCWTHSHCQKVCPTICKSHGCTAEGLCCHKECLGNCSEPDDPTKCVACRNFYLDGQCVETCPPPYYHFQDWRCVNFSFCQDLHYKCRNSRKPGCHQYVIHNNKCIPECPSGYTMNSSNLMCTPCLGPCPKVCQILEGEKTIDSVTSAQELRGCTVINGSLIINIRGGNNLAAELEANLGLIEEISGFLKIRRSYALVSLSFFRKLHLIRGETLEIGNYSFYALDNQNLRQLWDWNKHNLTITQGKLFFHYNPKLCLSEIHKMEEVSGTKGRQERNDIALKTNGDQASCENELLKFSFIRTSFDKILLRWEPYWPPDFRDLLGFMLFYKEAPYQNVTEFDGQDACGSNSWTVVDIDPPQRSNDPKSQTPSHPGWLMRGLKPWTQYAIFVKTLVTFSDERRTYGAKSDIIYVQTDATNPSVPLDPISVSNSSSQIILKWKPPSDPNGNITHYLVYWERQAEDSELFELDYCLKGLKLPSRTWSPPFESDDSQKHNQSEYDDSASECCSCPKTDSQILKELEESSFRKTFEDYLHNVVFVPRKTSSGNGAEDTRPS
Chain of Insulin receptor (P15127 764-1383 limits assumed): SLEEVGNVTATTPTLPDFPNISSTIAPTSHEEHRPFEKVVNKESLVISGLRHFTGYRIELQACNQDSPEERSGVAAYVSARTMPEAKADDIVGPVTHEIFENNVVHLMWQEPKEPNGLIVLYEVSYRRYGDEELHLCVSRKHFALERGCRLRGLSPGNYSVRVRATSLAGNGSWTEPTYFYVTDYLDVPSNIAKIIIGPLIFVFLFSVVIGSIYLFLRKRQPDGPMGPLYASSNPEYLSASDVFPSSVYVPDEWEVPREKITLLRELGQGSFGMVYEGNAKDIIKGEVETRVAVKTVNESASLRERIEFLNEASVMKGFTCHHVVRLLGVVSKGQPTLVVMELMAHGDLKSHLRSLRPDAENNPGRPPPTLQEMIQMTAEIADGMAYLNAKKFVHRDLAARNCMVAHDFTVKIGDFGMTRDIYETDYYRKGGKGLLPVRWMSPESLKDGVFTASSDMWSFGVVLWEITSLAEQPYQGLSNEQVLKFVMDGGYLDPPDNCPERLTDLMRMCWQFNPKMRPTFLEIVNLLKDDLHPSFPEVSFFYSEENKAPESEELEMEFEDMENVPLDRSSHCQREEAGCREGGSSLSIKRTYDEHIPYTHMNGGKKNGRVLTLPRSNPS

Chain of D(1A) dopamine receptor (P21728 whole entry): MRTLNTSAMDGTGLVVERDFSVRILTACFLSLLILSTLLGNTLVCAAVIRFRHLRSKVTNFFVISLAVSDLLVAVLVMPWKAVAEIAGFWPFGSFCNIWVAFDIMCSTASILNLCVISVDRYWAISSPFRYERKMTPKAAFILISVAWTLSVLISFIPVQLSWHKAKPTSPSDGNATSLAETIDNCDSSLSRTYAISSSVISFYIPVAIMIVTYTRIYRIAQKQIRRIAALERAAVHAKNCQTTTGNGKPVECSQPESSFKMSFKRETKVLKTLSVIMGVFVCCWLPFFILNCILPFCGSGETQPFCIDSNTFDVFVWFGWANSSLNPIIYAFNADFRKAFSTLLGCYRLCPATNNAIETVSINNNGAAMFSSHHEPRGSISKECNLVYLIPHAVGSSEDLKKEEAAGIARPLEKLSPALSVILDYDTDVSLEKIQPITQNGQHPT

| SMILES | IC50 (D(1A) dopamine receptor) | IC50 [1] | Ki [1] | IC50 (Acetylcholinesterase) | IC50 [2] | Ki [2] | IC50 [3] | IC50 (D(4) dopamine receptor) | IC50 ([4]; platelet) | IC50 (Insulin receptor) | IC50 ([4]; read-out: IC50) [µM] |
| --- | --- | --- | --- | --- | --- | --- | --- | --- | --- | --- | --- |
| N=C(N)NC(=O)Cc1c(Cl)cccc1Cl [GUANFACINE] | Not Active | Not Active | Not Active | Not Active | Not Active | Not Active | Not Active | Not Active | Not Active | Not Active | – |
| NNc1nncc2ccccc12 [HYDRALAZINE] | Not Active | Not Active | Not Active | Not Active | Not Active | Not Active | Not Active | Not Active | Not Active | Not Active | – |
| CC(=O)[C@@]1(O)CC[C@H]2[C@@H]3CCC4=CC(=O)CC[C@]4(C)[C@H]3CC[C@@]21C [HYDROXYPROGESTERONE] | Not Active | Not Active | Not Active | Not Active | Not Active | Not Active | Not Active | Not Active | Not Active | Not Active | – |
| COC1=C(OC)C(=O)C(CCCCCCCCCCO)=C(C)C1=O [IDEBENONE] | Not Active | Not Active | Not Active | Not Active | Not Active | Not Active | Not Active | Not Active | Not Active | Not Active | – |
| CC(C)NNC(=O)c1ccncc1 [IPRONIAZID] | Not Active | Not Active | Not Active | Not Active | Not Active | Not Active | Not Active | Not Active | Not Active | Not Active | – |
| Cc1c(OCC(F)(F)F)ccnc1C[S+]([O-])c1nc2ccccc2[nH]1 (stereo not given) [LANSOPRAZOLE] | Not Active | Not Active | Not Active | Not Active | Not Active | Not Active | Not Active | Not Active | Not Active | Not Active | – |
| O=c1cc(N2CCOCC2)oc2c(-c3ccccc3)cccc12 [LY-294002] | Not Active | Not Active | Not Active | Not Active | Not Active | Not Active | Not Active | Not Active | Not Active | Not Active | – |
| COc1ccc2[nH]cc(CCNC(C)=O)c2c1 [MELATONIN] | Not Active | Not Active | Not Active | Not Active | Not Active | Not Active | Not Active | Not Active | Not Active | Not Active | – |
| NC(=O)C[S+]([O-])C(c1ccccc1)c1ccccc1 (stereo not given) [MODAFINIL] | Not Active | Not Active | Not Active | Not Active | Not Active | Not Active | Not Active | Not Active | Not Active | Not Active | – |
| CCN(CC)CCOCCC1=CCC2CC1C2(C)C (stereo not given) [MYRTECAINE] | Not Active | Not Active | Not Active | Not Active | Not Active | Not Active | Not Active | Not Active | Not Active | Not Active | – |
| O=C(N/N=C/c1ccc([N+](=O)[O-])o1)c1cc([N+](=O)[O-])cc([N+](=O)[O-])c1O [NIFURSOL] | Not Active | Not Active | Not Active | Not Active | Not Active | Not Active | Not Active | Not Active | Not Active | Not Active | – |
| COC(=O)Nc1nc2ccc(C(=O)c3cccs3)cc2[nH]1 [NOCODAZOLE] | Not Active | Not Active | Not Active | Not Active | Not Active | Not Active | Not Active | Not Active | Not Active | Not Active | – |
| C#CC1(O)CC[C@H]2[C@@H]3CCC4=CC(=O)CC[C@@H]4[C@H]3CC[C@@]21CC (stereo not given in full) [NORGESTREL] | Not Active | Not Active | Not Active | Not Active | Not Active | Not Active | Not Active | Not Active | Not Active | Not Active | – |
| COC(=O)Nc1nc2ccc([S+]([O-])c3ccccc3)cc2[nH]1 (stereo not given) [OXFENDAZOLE] | Not Active | Not Active | Not Active | Not Active | Not Active | Not Active | Not Active | Not Active | Not Active | Not Active | – |
| C[n+]1ccc(-c2cc[n+](C)cc2)cc1.[Cl-].[Cl-] [PARAQUAT DICHLORIDE] | Not Active | Not Active | Not Active | Not Active | Not Active | Not Active | Not Active | Not Active | Not Active | Not Active | – |
| CC(C)NCC(O)COc1cccc2[nH]ccc12 (stereo not given) [PINDOLOL] | Not Active | Not Active | Not Active | Not Active | Not Active | Not Active | Not Active | Not Active | Not Active | Not Active | – |
| CCn1cc(C(=O)O)c(=O)c2cnc(N3CCCC3)nc21 [PIROMIDIC ACID] | Not Active | Not Active | Not Active | Not Active | Not Active | Not Active | Not Active | Not Active | Not Active | Not Active | – |
| C[n+]1ccccc1/C=N/O.[Cl-] [PRALIDOXIME CHLORIDE] | Not Active | Not Active | Not Active | Not Active | Not Active | Not Active | Not Active | Not Active | Not Active | Not Active | – |
| COc1cc2nc(N3CCN(C(=O)c4ccco4)CC3)nc(N)c2cc1OC [PRAZOSIN] | Not Active | Not Active | Not Active | Not Active | Not Active | Not Active | Not Active | Not Active | Not Active | Not Active | – |
| C[C@]12C=CC(=O)C=C1CC[C@@H]1[C@@H]2[C@@H](O)C[C@@]2(C)[C@H]1CC[C@]2(O)C(=O)CO [PREDNISOLONE] | Not Active | Not Active | Not Active | Not Active | Not Active | Not Active | Not Active | Not Active | Not Active | Not Active | – |
| CC(=O)[C@H]1[C@H](C#N)C[C@H]2[C@@H]3CC=C4C[C@@H](O)CC[C@]4(C)[C@H]3CC[C@@]21C [PREGNENOLONE CARBONITRILE] | Not Active | Not Active | Not Active | Not Active | Not Active | Not Active | Not Active | Not Active | Not Active | Not Active | – |
| CCCN(CCC)S(=O)(=O)c1ccc(C(=O)O)cc1 [PROBENECID] | Not Active | Not Active | Not Active | Not Active | Not Active | Not Active | Not Active | Not Active | Not Active | Not Active | – |
| CCCNCC(O)COc1ccccc1C(=O)CCc1ccccc1 (stereo not given) [PROPAFENONE] | Not Active | Not Active | Not Active | Not Active | Not Active | Not Active | Not Active | Not Active | Not Active | Not Active | – |
| CCCOc1ccc(C(=O)OCCN(CC)CC)cc1N [PROPARACAINE] | Not Active | Not Active | Not Active | Not Active | Not Active | Not Active | Not Active | Not Active | Not Active | Not Active | – |
| CC(C)c1cccc(C(C)C)c1O [PROPOFOL] | Not Active | Not Active | Not Active | Not Active | Not Active | Not Active | Not Active | Not Active | – | Not Active | 3.83 |
| C[C@@H]1O[C@@H](O[C@@H]2C=C3CC[C@@H]4[C@H](CC[C@]5(C)[C@@H](c6ccc(=O)oc6)CC[C@]45O)[C@@]3(C)CC2)[C@H](O)[C@H](O)[C@H]1O [PROSCILLARIDIN] | Not Active | Not Active | Not Active | Not Active | Not Active | Not Active | Not Active | Not Active | Not Active | Not Active | – |
